According to patent publication US7319094B2, “Increased and sustained in vivo gene expression using a nucleic acid, histone and amphipathic compound composition” (Rhode Island Hospital, priority 2001, dated 2008):
“Also recorded” adds a separate entry of the source.

Tests used:
Format in all cases: cell-based, human
phospho-tau = phospho-tau expression, Western blot / MICE assay; conditions: PNET2 cells induced to express AD7c-NTP; relative to PDGF-stimulated cultures
Description: (§1) Standard Western blot assays wew used to measure cellular levels of p53, Bcl-2, p21/Waf1, phospho-tau, tau, c-fos, NTP, and activated (phosphorylated) forms of Erk mitogen activated protein (MAP) kinase, amino-terminal c-jun-activated kinase (pJNK), and p38/HOG1. Immunoprecipitation followed by Western blot analysis was used to measure p85 subunit associated with IRS1. For Western blot analysis of p53 Bcl-2, phospho-tau, tau, c-fos, and NTP, the cells were lysed in ice cold radioimmunoprecipitation assay (RIPA) buffer supplemented with protease and phosphatase inhibitors. […] Protein concentrations were measured using the BCA assay (Pierce, Rockford, Ill.). Samples containing 60 μg of protein were fractionated by sodium dodecyl sulfate polyacrylamide gel electrophoresis (SDS-PAGE), then transferred to PVDF membranes, and analyzed by Western immunoblotting. Immunoreactivity was detected with horseradish peroxidase conjugated secondary IgG and PicoWest enhanced chemiluminescence reagents (Pierce Chemical Company, Rockford, Ill.). CAT activity was measured using known methods.
(§2) The MICE assay is known in the art (e.g., as described by de la Monte et al., 1999, Biotechniques 26:107301076). […] Immunoreactivity was detected using horseradish peroxidase conjugated secondary antibody (Pierce, Rockford, Ill.) and the TMB soluble peroxidase substrate (Pierce, Rockford, Ill.). […]

phospho-JNK = experiment: Growth factor stimulated phospho-JNK, Western blot; conditions: 5-30 min stimulation
Description: (§3) Standard Western blot assays wew used to measure cellular levels of p53, Bcl-2, p21/Waf1, phospho-tau, tau, c-fos, NTP, and activated (phosphorylated) forms of Erk mitogen activated protein (MAP) kinase, amino-terminal c-jun-activated kinase (pJNK), and p38/HOG1. Immunoprecipitation followed by Western blot analysis was used to measure p85 subunit associated with IRS1. For Western blot analysis of p53 Bcl-2, phospho-tau, tau, c-fos, and NTP, the cells were lysed in ice cold radioimmunoprecipitation assay (RIPA) buffer supplemented with protease and phosphatase inhibitors. For the immunoprecipitation studies, Western blot analysis of phospho-Erk, pJNK, and p38, and the PI3 kinase assays, the cells were harvested in Triton lysis buffer supplemented with protease and phosphatase inhibitors. Protein concentrations were measured using the BCA assay (Pierce, Rockford, Ill.). Samples containing 60 μg of protein were fractionated by sodium dodecyl sulfate polyacrylamide gel electrophoresis (SDS-PAGE), then transferred to PVDF membranes, and analyzed by Western immunoblotting. Immunoreactivity was detected with horseradish peroxidase conjugated secondary IgG and PicoWest enhanced chemiluminescence reagents (Pierce Chemical Company, Rockford, Ill.). CAT activity was measured using known methods.
The potential mechanisms by which the differential effects of insulin, IGF1 and PDGF might occur were explored by examining pathways, which mediate PNET2 neuronal apoptosis and neuritic sprouting. […] Western blot analysis was performed with cell lysates obtained from cultures stimulated with insulin, IGF1, or PDGF for 0-30 minutes or 24 hours with equivalent protein loading (60 μg/sample). The membranes were probed using antibodies to Erk, phospho-Erk, Jun, and phospho-JNK. […] In contrast, after 24 hours of AD7c-NTP gene induction and growth factor stimulation, high levels of phospho-Erk MAPK were detected in the IGF-1 and PDGF-stimulated cultures, but not in the serum-starved or insulin-stimulated cultures. […] In contrast, the levels of c-fos transcription factor were equally expressed after 24 hours IPTG induction of AD7c-NTP expression and either serum starvation or stimulation with insulin, IGF1 or PDGF.

p25 = p25 expression, Western blot / MICE assay; conditions: PNET2 cells induced to express AD7c-NTP
Description: as §1, §2

p53 = p53 expression, Western blot / MICE assay; conditions: PNET2 cells induced to express AD7c-NTP, growth factor stimulated
Description: as §3
The MICE assay is known in the art (e.g., as described by de la Monte et al., 1999, Biotechniques 26:107301076). The assay is a rapid and sensitive method for quantifying immunoreactivity in 96-well micro-cultures and combines the advantages of the enzyme-linked immunosorbant assay with immunocytochemical staining to permit sensitive in situ quantification of protein expression with values normalized to cell density. […] Immunoreactivity was detected using horseradish peroxidase conjugated secondary antibody (Pierce, Rockford, Ill.) and the TMB soluble peroxidase substrate (Pierce, Rockford, Ill.). Absorbances were measured at 450 nm using a Spectracount plate reader. […]

“insulin: Human insulin purchased from Novagen” was tested, and the phospho-tau level (phospho-tau) was “increased levels”, the “phospho-JNK level, short-term stimulation” value (phospho-JNK) was “sharply increased and sustained elevations” and the p25 level (p25) was “significantly increased levels”. For the same substance, the p53 level (p53) was “high levels of p53; also recorded: significantly increased levels”.
